Measured values published in patent US20160002204A1 (Board of Regents, The University of Texas System, priority 2014, published 2016).

Legend:
[1] = target: T1, GLS1 (purified recombinant human GAC) (Homo sapiens, UniProt O94925); assay: GLS1 enzymatic activity assay (dual-coupled, Amplex UltraRed/resorufin); format: biochemical
T1 sequence (O94925 55-598 isoform O94925-3 limits assumed): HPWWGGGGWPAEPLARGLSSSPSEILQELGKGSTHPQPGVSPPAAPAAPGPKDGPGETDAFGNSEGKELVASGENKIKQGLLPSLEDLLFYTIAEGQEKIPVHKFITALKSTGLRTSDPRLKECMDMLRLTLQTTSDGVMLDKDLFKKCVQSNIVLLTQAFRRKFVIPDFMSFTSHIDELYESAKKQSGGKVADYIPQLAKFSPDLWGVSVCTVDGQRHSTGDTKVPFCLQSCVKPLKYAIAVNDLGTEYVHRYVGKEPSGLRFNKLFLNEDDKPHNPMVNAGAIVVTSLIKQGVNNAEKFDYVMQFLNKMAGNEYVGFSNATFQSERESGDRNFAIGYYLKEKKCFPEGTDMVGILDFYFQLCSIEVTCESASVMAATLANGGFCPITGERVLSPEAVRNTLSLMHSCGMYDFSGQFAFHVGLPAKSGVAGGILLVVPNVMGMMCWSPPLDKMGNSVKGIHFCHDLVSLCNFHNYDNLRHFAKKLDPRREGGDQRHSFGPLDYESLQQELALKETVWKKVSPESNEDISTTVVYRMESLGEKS
Summary of the method: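 In this coupled fluorometric format, phosphate-activated GAC (2 nM, 50 mM phosphate) is pre-exposed to compound for 10 min before 1 mM glutamine addition. Product is tracked as resorufin (530/590 nm) over time or at 20 min, and potency is derived by logistic fitting.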

A549 cells = assay: A549 proliferation (viability) assay, Cell Titer Fluor, 72 hours; format: cell-based; conditions: Homo sapiens
Summary of the method: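 Fluorescence read-out (Cell Titer Fluor, 30 min at 37 °C after reagent) after 72 h compound exposure of A549 cells; EC50 by four-parameter logistic curve fit. Cells: 1000/well, RPMI 1640 + 10% dialyzed FBS, 0.5% DMSO final.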

| IC50 [1] | EC50 (A549 cells) | Structure (SMILES) |
| --- | --- | --- |
| < 100 nM | 100 to 500 nM | O=C(Cc1ccccc1)Nc1ccn(CCC(F)Cn2cc(C(=O)NCc3ccc(C(F)(F)F)nc3)nn2)c(=O)c1F (centres unmarked) [Example 367, 1-{2-fluoro-4-[3-fluoro-2-oxo-4-(2-phenylacetamido)-1,2-dihydropyridin-1-yl]butyl}-N-{[6-(trifluoromethyl)pyridin-3-yl]methyl}-1H-1,2,3-triazole-4-carboxamide] |
| < 100 nM | < 100 nM | C[C@H](C(=O)Nc1ccn(CCC(F)Cn2cc(C(=O)NCc3ccc(C(F)(F)F)nc3)nn2)c(=O)c1F)c1ccccc1 (stereo partly drawn) [Example 368, 1-(2-fluoro-4-{3-fluoro-2-oxo-4-[(2S)-2-phenylpropanamido]-1,2-dihydropyridin-1-yl}butyl)-N-{[6-(trifluoromethyl)pyridin-3-yl]methyl}-1H-1,2,3-triazole-4-carboxamide] |
| < 100 nM | < 100 nM | O=C(CC1CCCC1)Nc1ccn(CCC(F)Cn2cc(C(=O)NCc3ccc(C(F)(F)F)nc3)nn2)c(=O)c1F (centres unmarked) [Example 369, 1-{4-[4-(2-cyclopentylacetamido)-3-fluoro-2-oxo-1,2-dihydropyridin-1-yl]-2-fluorobutyl}-N-{[6-(trifluoromethyl)pyridin-3-yl]methyl}-1H-1,2,3-triazole-4-carboxamide] |
| 100 to 500 nM | 100 to 500 nM | O=C(NCc1ccc(C(F)(F)F)nc1)c1cn(CC(F)CCn2ccc(NC(=O)C3CCCC3)c(F)c2=O)nn1 (centres unmarked) [Example 370, 1-[4-(4-cyclopentaneamido-3-fluoro-2-oxo-1,2-dihydropyridin-1-yl)-2-fluorobutyl]-N-{[6-(trifluoromethyl)pyridin-3-yl]methyl}-1H-1,2,3-triazole-4-carboxamide] |
| < 100 nM | 100 to 500 nM | O=C(Cc1ccccc1F)Nc1ccn(CCC(F)Cn2cc(C(=O)NCc3ccc(C(F)(F)F)nc3)nn2)c(=O)c1F (centres unmarked) [Example 371, 1-(2-fluoro-4-{3-fluoro-4-[2-(2-fluorophenyl)acetamido]-2-oxo-1,2-dihydropyridin-1-yl}butyl)-N-{[6-(trifluoromethyl)pyridin-3-yl]methyl}-1H-1,2,3-triazole-4-carboxamide] |
| < 100 nM | 100 to 500 nM | O=C(NCc1ccc(C(F)(F)F)nc1)c1cn(CC(F)CCn2ccc(NC(=O)C(F)c3ccccc3)c(F)c2=O)nn1 (stereo not drawn) [Example 372, l-{2-fluoro-4-[3-fluoro-4-(2-fluoro-2-phenylacetamido)-2-oxo-1,2-dihydropyridin-1-yl]butyl}-N-{[6-(trifluoromethyl)pyridin-3-yl]methyl}-1H-1,2,3-triazole-4-carboxamide] |
| 100 to 500 nM | 500 to 5000 nM | O=C(Cc1ccccc1)Nc1ccn(CCC(F)Cn2cc(C(=O)NCc3ncccc3F)nn2)c(=O)c1F (centres unmarked) [Example 373, 1-{2-fluoro-4-[3-fluoro-2-oxo-4-(2-phenylacetamido)-1,2-dihydropyridin-1-yl]butyl}-N-[(3-fluoropyridin-2-yl)methyl]-1H-1,2,3-triazole-4-carboxamide] |
| < 100 nM | 100 to 500 nM | O=C(CC1CCC1)Nc1ccn(CCC(F)Cn2cc(C(=O)NCc3ccc(CF)nc3)nn2)c(=O)c1F (centres unmarked) [Example 374, 1-{4-[4-(2-cyclobutylacetamido)-3-fluoro-2-oxo-1,2-dihydropyridin-1-yl]-2-fluorobutyl}-N-{[6-(fluoromethyl)pyridin-3-yl]methyl}-1H-1,2,3-triazole-4-carboxamide] |
| 100 to 500 nM | 500 to 5000 nM | O=C(Cc1ccccc1)Nc1ccn(CCC(F)Cn2cc(C(=O)NCc3ccc(CF)nc3)nn2)c(=O)c1F (centres unmarked) [Example 375, 1-{2-fluoro-4-[3-fluoro-2-oxo-4-(2-phenylacetamido)-1,2-dihydropyridin-1-yl]butyl}-N-{[6-(fluoro-methyl)pyridin-3-yl]methyl}-1H-1,2,3-triazole-4-carboxamide] |
| < 100 nM | < 100 nM | O=C(Nc1ccn(CCC(F)Cn2cc(C(=O)NCc3cccc(OC(F)(F)F)c3)nn2)c(=O)c1F)OC1CCC1 (centres unmarked) [Example 376, cyclobutyl N-(3-fluoro-1-{3-fluoro-4-[4-({[3-(trifluoro-methoxy)phenyl]methyl}carbamoyl)-1H-1,2,3-triazol-1-yl]butyl}-2-oxo-1,2-dihydropyridin-4-yl)carbamate] |
| < 100 nM | < 100 nM | O=C(Nc1ccn(CCC(F)Cn2cc(C(=O)NCc3cc(C(F)(F)F)ccn3)nn2)c(=O)c1F)OC1CCC1 (centres unmarked) [Example 377, cyclobutyl N-(3-fluoro-1-{3-fluoro-4-[4-({[4-(trifluoromethyl)pyridin-2-yl]methyl}carbamoyl)-1H-1,2,3-triazol-1-yl]butyl}-2-oxo-1,2-dihydropyridin-4-yl)carbamate] |
| < 100 nM | 100 to 500 nM | O=C(Cc1ccccc1)Nc1ccn(CCC(F)Cn2cc(C(=O)NCc3ccc(C(F)(F)F)cn3)nn2)c(=O)c1F (centres unmarked) [Example 379, 1-{2-fluoro-4-[3-fluoro-2-oxo-4-(2-phenylacetamido)-1,2-dihydropyridin-1-yl]butyl}-N-{[5-(trifluoromethyl)pyridin-2-yl]methyl}-1H-1,2,3-triazole-4-carboxamide] |
| 100 to 500 nM | 500 to 5000 nM | N#Cc1ccc(CNC(=O)c2cn(CC(F)CCn3ccc(NC(=O)Cc4ccccc4)c(F)c3=O)nn2)cn1 (centres unmarked) [Example 380, N-[(6-cyanopyridin-3-yl)methyl]-1-{2-fluoro-4-[3-fluoro-2-oxo-4-(2-phenylacetamido)-1,2-dihydropyridin-1-yl]butyl}-1H-1,2,3-triazole-4-carboxamide] |
| 100 to 500 nM | 500 to 5000 nM | O=C(Cc1ccccc1)Nc1ccn(CCC(F)Cn2cc(C(=O)NCC3CCCC3)nn2)c(=O)c1F (centres unmarked) [Example 381, N-(cyclopentylmethyl)-1-{2-fluoro-4-[3-fluoro-2-oxo-4-(2-phenylacetamido)-1,2-dihydropyridin-1-yl]butyl}-1H-1,2,3-triazole-4-carboxamide] |
| 500 to 5000 nM | > 5000 nM | Nc1ccn(CCC(F)Cn2cc(C(=O)NCc3cccc(OC(F)(F)F)c3)nn2)c(=O)n1 (centres unmarked) [Example 382, 1-[4-(4-amino-2-oxo-1,2-dihydropyrimidin-1-yl)-2-fluorobutyl]-N-{[3-(trifluoromethoxy)phenyl]methyl}-1H-1,2,3-triazole-4-carboxamide] |
| < 100 nM | < 100 nM | O=C(Nc1ccn(CCC(F)Cn2cc(C(=O)NCc3cccc(OC(F)(F)F)c3)nn2)c(=O)n1)OC1CCCCC1 (centres unmarked) [Example 383, cyclohexyl N-(1-{3-fluoro-4-[4-({[3-(trifluoromethoxy)phenyl]methyl}carbamoyl)-1H-1,2,3-triazol-1-yl]butyl}-2-oxo-1,2-dihydropyrimidin-4-yl)carbamate] |
| < 100 nM | 100 to 500 nM | CC(C)OC(=O)Nc1ccn(CCC(F)Cn2cc(C(=O)NCc3cccc(OC(F)(F)F)c3)nn2)c(=O)n1 (centres unmarked) [Example 384, propan-2-yl N-(1-{3-fluoro-4-[4-({[3-(trifluoromethoxy)phenyl]methyl}carbamoyl)-1H-1,2,3-triazol-1-yl]butyl}-2-oxo-1,2-dihydro-pyrimidin-4-yl)carbamate] |
| < 100 nM | 100 to 500 nM | O=C(Nc1ccn(CCC(F)Cn2cc(C(=O)NCc3cccc(OC(F)(F)F)c3)nn2)c(=O)n1)OC1CCC1 (centres unmarked) [Example 385, cyclobutyl N-(1-{3-fluoro-4-[4-({[3-(trifluoromethoxy)phenyl]methyl}carbamoyl)-1H-1,2,3-triazol-1-yl]butyl}-2-oxo-1,2-dihydro-pyrimidin-4-yl)carbamate] |
| < 100 nM | 100 to 500 nM | O=C(CC1CCCC1)Nc1cnn(CCC(F)Cn2cc(C(=O)NCc3cccc(OC(F)(F)F)c3)nn2)c(=O)c1 (centres unmarked) [Example 386, 1-(4-(4-(2-cyclopentylacetamido)-6-oxopyridazin-1(6H)-yl)-2-fluorobutyl)-N-(3-(trifluoromethoxy)benzyl)-1H-1,2,3-triazole-4-carboxamide] |
| < 100 nM | < 100 nM | O=C(CC1CCCC1)Nc1ccn(CCC(F)Cn2cc(C(=O)NCc3ncccc3F)nn2)c(=O)c1F (centres unmarked) [Example 387, 1-{4-[4-(2-cyclopentylacetamido)-3-fluoro-2-oxo-1,2-dihydropyridin-1-yl]-2-fluorobutyl}-N-[(3-fluoropyridin-2-yl)methyl]-1H-1,2,3-triazole-4-carboxamide] |
| < 100 nM | < 100 nM | O=C(CC1CCCC1)Nc1ccn(CCC(F)Cn2cc(C(=O)NCc3ccc(CF)nc3)nn2)c(=O)c1F (centres unmarked) [Example 388, 1-{4-[4-(2-cyclopentylacetamido)-3-fluoro-2-oxo-1,2-dihydropyridin-1-yl]-2-fluorobutyl}-N-{[6-(fluoromethyl)pyridin-3-yl]methyl}-1H-1,2,3-triazole-4-carboxamide] |
| < 100 nM | < 100 nM | O=C(CC1CCC1)Nc1ccn(CCC(F)Cn2cc(C(=O)NCc3ccc(OC(F)(F)F)cn3)nn2)c(=O)c1F (centres unmarked) [Example 389, 1-{4-[4-(2-cyclobutylacetamido)-3-fluoro-2-oxo-1,2-dihydropyridin-1-yl]-2-fluorobutyl}-N-{[5-(trifluoromethoxy)pyridin-2-yl]methyl}-1H-1,2,3-triazole-4-carboxamide] |
